Test results reported in patent publication US6680325B2, “Agents for combating plant pests” (Bayer Aktiengesellschaft, priority 1998, dated 2004).
Read-outs that look alike come from different tables or passages of the source.

What was measured:
Pyrenophora teres = Pyrenophora teres test (barley)/protective; type: in vivo; details: 7 days after inoculation, single value given
Procedure: After the spray coating has dried on, the plants are sprayed with a conidia suspension of Pyrenophora teres.
The plants are then placed in a greenhouse at a temperature of approximately 20° C. and a relative atmospheric humidity of approximately 80%.
Evaluation is carried out 7 days after the inoculation.

[1] = tested on: Phaedon cochleariae larvae; assay: Critical concentration test/root-systemic action, Phaedon cochleariae (cabbage); type: in vivo
Procedure: (§1) The active compound preparation is mixed intimately with soil. Here, the concentration of the active compound in the preparation is almost irrelevant; only the amount by weight of active compound or active compound mixture per volume unit of soil, which is stated in ppm (mg/l), matters.
Soil is filled into 250 ml pots and these are planted with cabbage (Brassica oleracea). The active compound or the active compound combination can thus be taken up by the plant roots from the soil and transported into the leaves.

[2] = tested on: Heliothis virescens caterpillars; assay: Heliothis virescens test (soya bean shoot dip); type: in vivo
Spodoptera frugiperda [3] = assay: Critical concentration test/soil insects, Spodoptera frugiperda (maize); type: in vivo
Description: as §1

[4] = tested on: Diabrotica balteata - larvae in the soil; assay: Critical concentration test/soil insects, Diabrotica balteata larvae in the soil (maize); type: in vivo
Procedure: (§2) Here, the concentration of the active compound in the preparation is almost irrelevant; only the amount by weight of active compound per volume unit of soil, which is stated in ppm (mg/l), matters. The soil is filled into 0.51 pots and these are allowed to stand at 20° C.
Immediately after preparation, 5 maize corns are placed into each pot. After 3 days, the test insects are placed into the treated soil. After a further 7 days, the efficacy is determined. The efficacy is calculated from the number of maize plants which have emerged.

Spodoptera frugiperda [5] = assay: Critical concentration test/root systemic action, Spodoptera frugiperda (maize); type: in vivo
Procedure: as §2, with “The preparation of active compound is mixed intimately with soil. Here,” for “Here,”, “virtually immaterial;” for “almost irrelevant;”, “250 ml” for “0.51”
Immediately after preparation, 3 maize corns are placed into each pot. 14 days after the preparation, the test insects are placed into an insect bracket and attached to the plant. 4 days after the infection, the efficacy of the active compound is determined in % by counting the dead and live test insects. The efficacy is 100% if all test insects have been killed; it is 0% if the same number of test insects is alive as in the untreated control.

Sphaerotheca fuliginea = assay: Sphaerotheca test (cucumber)/protective; type: in vivo; details: 10 days after inoculation
Procedure: After the spray coating has dried on, the plants are inoculated with an aqueous spore suspension of Sphaerotheca fuliginea.
(§3) Evaluation is carried out 10 days after the inoculation.

Botrytis cinerea = assay: Botrytis test (bean)/protective; details: 2 days after inoculation
Description: If the actual fungicidal activity exceeds the calculated value, then the activity of the combination is superadditive, i.e. a synergistic effect exists. In this case, the efficacy which was actually observed must be greater than the value for the expected efficacy (E) calculated from the formula set out above.
After the spray coating has dried on, 2 small pieces of agar colonized by Botrytis cinerea are placed onto each leaf. The inoculated plants are placed in a dark chamber at approximately 20° C. and 100% relative atmospheric humidity.
2 days after the inoculation, the size of the disease spots on the leaves is evaluated.

Fusarium culmorum = Fusarium culmorum test (wheat)/seed treatment; type: in vivo; details: 75 g/ha, dry seed dressing, approximately 3 weeks after sowing
Procedure: Fusarium Culmorum Test (Wheat)/Seed Treatment
The active compounds are applied as a dry dressing. They are prepared by extending the active compound in question with ground minerals to give a finely pulverulent mixture which ensures even distribution on the surface of the seeds.
For the dressing, the infected seeds are shaken with the dressing in a closed glass bottle for 3 minutes.
2×100 seeds of the wheat are sown at a depth of 1 cm into standard soil, and the wheat is cultivated in a greenhouse at a temperature of approximately 18° C. and at a relative atmospheric humidity of approximately 95% in seed containers receiving 15 hours of light per day.
The evaluation of the plants for symptoms is carried out approximately 3 weeks after sowding.

Puccinia recondita = assay: Puccinia test (wheat)/protective; type: in vivo; details: 18.75 g/ha, 10 days after inoculation
Procedure: After the spray coating has dried on, the plants are sprayed with a conidia suspension of Puccinia recondita.
The plants are then placed in a greenhouse at a temperature of approximately 20° C. and a relative atmospheric humidity of 80% to promote the development of rust pustules.
as §3

[6] = tested on: caterpillars of the diamondback moth (Plutella xylostella); assay: Plutella test (cabbage leaf dip); type: in vivo
[7] = tested on: larvae of the mustard beetle (Phaedon cochleariae); assay: Phaedon larvae test (cabbage leaf dip)
[8] = tested on: Erysiphe graminis f.sp. hordei; assay: Erysiphe test (barley)/protective; type: in vivo; details: 62.5 g/ha, 7 days after inoculation; single value given
[9] = tested on: green rice leaf hopper (Nephotettix cincticeps); assay: Nephotettix test (rice seedling dip); type: in vivo
Phytophthora infestans = type: in vivo; details: 3 days after inoculation
[10] = Spodoptera frugiperda, 120 h, 20.00 ppm in soil, read-out: Kill in %
[11] = Spodoptera frugiperda, soil, 120 h, read-out: Kill in %

CO/C=C(/C(=O)OC)c1ccccc1Oc1cc(Oc2ccccc2C#N)ncn1 [azoxystrobin]
Efficacy in % calculated/found (Pyrenophora teres; 18.75 g/ha): 0%
Kill in % ([1]; 20.00 ppm in soil): 0%
Kill in % ([2]; concentration 0.0008 %): 0%
pest or weed control at 20 ppm (Spodoptera frugiperda [3]; [10]): 0%

CC(C)(C)C(O)C(Oc1ccc(-c2ccccc2)cc1)n1cncn1 (centres unmarked) [bitertanol]
Kill in % ([1]; 20.00 ppm in soil): 0%
pest or weed control at 20 ppm (Spodoptera frugiperda [3]; [10]): 0%

CO/N=C(\C1=NOCCO1)c1ccccc1Oc1ncnc(Oc2ccccc2Cl)c1F [compound according to (48)]
Kill in % ([4]; 20.00 ppm in soil): 20.00 ppm = 0%

Cc1noc(C)c1S(=O)(=O)n1c(Cl)nc2cc3c(cc21)OC(F)(F)O3 [compound according to (50)]
Kill in % ([4]; 20.00 ppm in soil): 20.00 ppm = 70%

OC(Cc1ccccc1Cl)(Cn1nc[nH]c1=S)C1(Cl)CC1 (centres unmarked) [compound of group (49)]
Kill in % (Spodoptera frugiperda [5]; 5.00 ppm in soil): 5.00 ppm = 0%

CC(C1CC1)C(O)(Cn1cncn1)c1ccc(Cl)cc1 (centres unmarked) [cyproconazole]
Efficacy in % found (Sphaerotheca fuliginea; 10 g/ha): 70%
pest or weed control at 20 ppm (Spodoptera frugiperda [3]; [10]): 0%

N#Cc1c[nH]cc1-c1cccc(Cl)c1Cl [fenpiclonil]
Kill in % ([1]; 20.00 ppm in soil): 0%
Efficacy in % found (Sphaerotheca fuliginea; 500 g/ha): 50%
pest or weed control at 20 ppm (Spodoptera frugiperda [3]; [10]): 0%

N#Cc1c[nH]cc1-c1cccc2c1OC(F)(F)O2 [fludioxonil]
Efficacy in % found (Botrytis cinerea; 10 g/ha): 40%
Efficacy in % (Fusarium culmorum): 0%

CNC(=N[N+](=O)[O-])NCc1cnc(Cl)s1 [formula (I)]
Kill in % ([4]; 0.15 ppm in soil): 0.15 ppm = 0%
Kill in % ([4]; 0.30 ppm in soil): 0.30 ppm = 50%
Efficacy in % (Puccinia recondita): 0%
Kill in % ([6]; concentration 0.0008 %): 0%
Kill in % ([7]; concentration 0.000032 %): 0%
Kill in % ([7]; concentration 0.00016 %): 20%
Efficacy in % calculated/found (Pyrenophora teres; 18.75 g/ha): 20%
Efficacy in % calculated/found (Pyrenophora teres; 62.5 g/ha): 0%
Efficacy in % found (Botrytis cinerea; 10 g/ha): 0%
Efficacy in % found (Botrytis cinerea; 100 g/ha): 4%
Kill in % ([1]; 0.30 ppm in soil): 50%
Kill in % ([1]; 0.60 ppm in soil): 80%
Kill in % ([1]; 1.25 ppm in soil): 100%
Kill in % (Spodoptera frugiperda [5]; 0.15 ppm in soil): 0.15 ppm = 50%
Efficacy in % calculated/found [8]: 0%
Efficacy in % (Fusarium culmorum): 0%
Efficacy in % found (Sphaerotheca fuliginea; 10 g/ha): 0%
Efficacy in % found (Sphaerotheca fuliginea; 500 g/ha): 0%
Kill in % ([2]; concentration 0.00016 %): 50%
pest or weed control at 0.06 ppm (Spodoptera frugiperda [3]; [11]): 98%
pest or weed control at 0.3 ppm (Spodoptera frugiperda [3]; [11]): 50%
pest or weed control at 1.25 ppm (Spodoptera frugiperda [3]; [11]): 100%
Kill in % ([9]; concentration 0.00000128 %): 0%

CO/N=C(/C(=O)OC)c1ccccc1COc1ccccc1C [kresoxim-methyl]
Kill in % ([7]; concentration 0.1 %): 0%
Efficacy in % calculated/found [8]: 0%

COCC(=O)N(c1c(C)cccc1C)C(C)C(=O)OC (centres unmarked) [metalaxyl]
Efficacy in % found (Phytophthora infestans; 50 g/ha): 42%
Kill in % ([6]; concentration 0.1 %): 0%
Kill in % ([1]; 20.00 ppm in soil): 0%
pest or weed control at 20 ppm (Spodoptera frugiperda [3]; [10]): 0%
Kill in % ([9]; concentration 0.1 %): 0%

CC(C)(C)C(O)(CCc1ccc(Cl)cc1)Cn1cncn1 (centres unmarked) [tebuconazole]
Kill in % ([6]; concentration 0.02 %): 0%
Efficacy in % found (Botrytis cinerea; 100 g/ha): 80%
Kill in % ([1]; 20.00 ppm in soil): 0%
pest or weed control at 20 ppm (Spodoptera frugiperda [3]; [10]): 0%

CC(C)(C)C(O)C(Oc1ccc(Cl)cc1)n1cncn1 (centres unmarked) [triadimenol]
Efficacy in % found (Phytophthora infestans; 500 g/ha): 0%
Efficacy in % (Puccinia recondita): 13%
Kill in % ([1]; 20.00 ppm in soil): 0%
Efficacy in % (Fusarium culmorum): 13.5%
pest or weed control at 20 ppm (Spodoptera frugiperda [3]; [10]): 0%

[O-][n+]1nc(-n2ccnc2)nc2ccc(Cl)cc21 [triazoxides]
Efficacy in % calculated/found (Pyrenophora teres; 62.5 g/ha): 40%

propiconazole
Efficacy in % found (Phytophthora infestans; 500 g/ha): 5%
Kill in % ([1]; 20.00 ppm in soil): 0%
Kill in % (Spodoptera frugiperda [3]; 20.00 ppm in soil): 0%
